According to patent US20250250267A1, “NITROGEN-CONTAINING BRIDGED HETEROCYCLIC COMPOUND, PREPARATION METHOD THEREFOR, AND MEDICAL USE THEREOF” (Jiangsu Hengrui Pharmaceuticals Co., Ltd., priority 2020, published 2025):

What was measured:
[1] = system: human complement alternative pathway; assay: Inhibition of human complement alternative pathway (zymosan-activated human serum with EGTA, C5b-9 formation); format: biochemical; conditions: zymosan A, C5b-9 readout
Description: The alternative pathway can be activated by zymosan. The extent of activation of the alternative pathway can be evaluated by assaying the formation of the C5b-9 complex. […] Since the activation of the two pathways requires both magnesium and calcium ions, and the alternative pathway requires magnesium ions only, after chelation with the calcium ion chelator EGTA, the alternative pathway is not inhibited, while the classical pathway and the lectin pathway are. After chelation with EDTA, the three pathways are all inhibited. Therefore, the inhibitory effects of the small-molecule compounds on the alternative pathway can be evaluated by activating the complement alternative pathway in human serum with zymosan in the presence of the EGTA chelator and assaying the formation of the C5b-9 complex.
Zymosan A powder was resuspended at 10 mg/mL in TBS solution and activated by heating at 100° C. for 2 h. After the activation, the suspension was centrifuged at 4000 rpm for 30 min, and the supernatant was discarded. The residue was resuspended in TBS to form a 50 mg/mL suspension. The suspension was aliquoted and stored in a −20° C. freezer. The day before the experiment, the activated zymosan A solution was diluted to 1 mg/mL with the carbonic acid buffer (pH 9.5) and added to a 96-well adsorption black plate at 100 μL/well, and the plate was coated at 4° C. overnight.
A 100 mM Na2CO3 solution and a 100 mM NaHCO3 solution were prepared and mixed in a ratio of Na2CO3 to NaHCO3 of 3:7 (v/v) to adjust the pH to 9.5. The mixture was stored at room temperature for later use.
Activation reactions of the complement alternative pathway: Human serum was 5-fold diluted with PBS solution to form a 20% serum solution, and the solution was placed on ice for later use. 20 mM test compounds dissolved in 100% DMSO were serially diluted with 100% DMSO to 2000, 500, 125, 31.25, 7.8125, 0.488281, 0.12207, 0.030518, and 0.007629 μM, with the blank well containing 100% DMSO. The compounds and 100% DMSO were then 20-fold diluted in 2× EGTA reaction buffer (4.2 mM HEPES, 0.15 mM CaCl2), 140 mM NaCl, 4.5 mM MgCl2, 0.1% gelatin, 20 mM EGTA). Meanwhile, 100% DMSO was 20-fold diluted in 2× EDTA reaction buffer (4.2 mM HEPES, 0.15 mM CaCl2), 140 mM NaCl, 4.5 mM MgCl2, 0.1% gelatin, 20 mM EDTA) as a negative control well. 40-μL serum-EGTA reaction mixtures were prepared by mixing well 20 μL of 20% human serum, 4 μL of the above test compounds or DMSO diluted in 2× EGTA reaction buffer, and 16 μL of 2× EGTA reaction buffer. Serum-EGTA-DMSO was used as a blank control. The mixtures were incubated at room temperature for 30 min. In the negative control well, a 40-μL serum-EDTA reaction mixture was prepared by mixing well 20 μL of 20% human serum, 4 μL of the above DMSO diluted in 2× EDTA reaction buffer, and 16 μL of 2× EDTA reaction buffer. The mixture was incubated at room temperature for 30 min. The 96-well adsorption black plate coated with zymosan A one day ahead of time was washed 3 times with 300 μL/well TBST (0.05% tween 20) solution, and the serum-EGTA-test compound reaction mixtures, the blank control well, and the serum-EDTA-DMSO reaction mixture (negative control well) were added at 25 L/well. The mixtures were reacted at 37° C. for 40 min. The plate was washed 3 times with 300 μL/well TBST solution, the StartingBlock™ T20 (TBS) blocking buffer was added at 300 μL/well, and the plate was incubated at 37° C. for 15 min.

[2] = system: passive heymann nephritis rats; assay: Therapeutic effects on Heymann nephritis in rats induced by sheep anti-rat Fx1A serum; format: in vivo; conditions: for decrease in rat serum iC3b+C3d compared to the model group: serum day 15; for decrease in the ratio of total protein/creatinine in rat urine compared to the model group: day 14
Description: Experimental animals: laboratory male SD rats, provided by Vital River Laboratory Animal Technology Co., Ltd. (production license number: SCXK (Zhejiang) 2019-0001; animal certificate number: 20210401Abzz0619000322; weighing 180-200 g at purchase).
After the acclimatization, the male SD rats were grouped as follows according to total protein in urine and body weight in the 2 days before the experiment:
On day 0 of the experiment, the model group and administration groups were given a single tail vein injection of Fx1A serum (5 mL/kg), and the normal group was given a tail vein injection of normal goat serum. […] The experiment ended on day 15. Two-hour urine was collected on days 2, 4, 6, 8, 11, and 14 and assayed for creatinine and total protein. Serum was collected on day 15 for complement activation fragment (C3d+iC3b) analysis.
The experimental data are expressed as mean±standard error (SEM). Statistical comparison was performed using Excel software t-test. The data of the model group and the data of the blank control group were analyzed and compared to judge whether a significant mathematical statistical significance exists. *P<0.05 indicates a significant difference between the model group and the blank control group, **P<0.01 indicates a highly significant difference between the model group and the blank control group, and ***P<0.001 indicates a very highly significant difference between the model group and the blank control group. #P<0.05 indicates a significant difference between an administration group and the model group, ##P<0.01 indicates a highly significant difference between an administration group and the model group, and ###P<0.001 indicates a very highly significant difference between an administration group and the model group.

[3] = target: human complement factor B (Homo sapiens (Human), UniProt P00751); assay: biochemical
Description: Assays for the C3a des Arg epitope generated after C3 is cleaved can be used to evaluate the efficiency of C3 being hydrolyzed, i.e., the C3bBb enzyme activity, and thereby to evaluate the effects of the compounds on the C3bBb enzyme.
A 100 mM Na2CO3 solution and a 100 mM NaHCO3 solution were prepared and mixed in a ratio of Na2CO3 to NaHCO3 of 3:7 (v/v) to adjust the pH to 9.5. The mixture was stored at room temperature for later use. […] The compounds and 100% DMSO were then 20-fold diluted in C3 reaction buffer (PBS pH 7.4, 1 mM MgCl2, 0.05% CHAPS).
Cleavage reactions of the C3 protein: In a 96-well low-volume white plate, 10-μL reaction systems were prepared by adding CVF:Bb (to a final concentration of 2 nM) and 1 μL of the above test compounds and DMSO diluted in C3 reaction buffer to C3 reaction buffer (PBS pH 7.4, 1 mM MgCl2, 0.05% CHAPS). The plate was incubated at room temperature for 1 h. […] Human complement factor C3 was added to the reaction systems to a final concentration of 500 nM. After they were well mixed, the mixtures were reacted in a constant-temperature incubator at 37° C. for 2 h. Among the reaction mixtures, the reaction well that contained only 500 nM human complement factor C3 was used as a negative control. To a 96-well adsorption black plate, 97 μL of the carbonic acid buffer (pH 9.5) was added, and the C3 protein cleavage reaction mixtures were added at 3 μL/well. After they were well mixed, the plate was sealed and incubated at 4° C. overnight.
C3a des Arg assays: The plate was washed 3 times with 300 μL/well TBST (0.05% tween 20) solution, the StartingBlock™ T20 (TBS) blocking buffer was added at 300 μL/well, and the plate was incubated at 37° C. for 5 min. […] The plate was washed 3 times with 300 μL/well PBST solution, the goat anti-mouse IgG H&L (HRP) antibody was 1:5000 diluted in PBST solution and added at 100 μL/well, and the plate was incubated at 37° C. for 30 min. […]
The inhibition rate was calculated using the following formula:

[4] = system: patients with PNH and active hemolysis; conditions: cited from earlier work
[5] = system: IgAN patients; conditions: 4 IgAN patients, end of phase 2; cited from earlier work

Question: With `CCO[C@H]1C[C@H]2CC[C@](c3ccc(C(=O)O)cc3)(C1)N2Cc1c(OC)cc(C)c2[nH]ccc12` (relative stereo) [Example 1, (±)-rel-4-((1S,3S,5R)-3-Ethoxy-8-((5-methoxy-7-methyl-1H-indol-4-yl)methyl)-8-azabicyclo[3.2.1]octan-1-yl)benzoic acid] as the compound, how does the IC50 [1] read?
Answer: 43.2 nM

Question: With `CCO[C@H]1C[C@H]2CCC(c3ccc(C(=O)O)cc3)(C1)N2Cc1c(OC)cc(C)c2[nH]ccc12` (stereo in doubt) [Example 1-1, 4-((1S,3S,5R)-3-Ethoxy-8-((5-methoxy-7-methyl-1H-indol-4-yl)methyl)-8-azabicyclo[3.2.1]octan-1-yl)benzoic acid] as the compound, how does the “decrease in rat serum iC3b+C3d compared to the model group” value (“decrease in rat serum iC3b+C3d” for short) ([2]; 10 mg/kg orally twice daily) read?
Answer: 76.2%

Question: And the “decrease in rat serum iC3b+C3d” value ([2]; 30 mg/kg orally twice daily)?
Answer: 105.5%

Question: What about the “decrease in rat serum iC3b+C3d” value ([2]; 90 mg/kg orally twice daily) of the same compound?
Answer: 108.7%

Question: What about the IC50 [1] of the same compound?
Answer: 27 nM

Question: Which IC50 [1] does the source give for `CCO[C@H]1C[C@H]2CCC(c3ccc(C(=O)O)cc3)(C1)N2Cc1c(C)cc(C)c2[nH]ccc12` (stereo in doubt) [Example 3, 4-((1S,3S,5R)-8-((5,7-Dimethyl-1H-indol-4-yl)methyl)-3-ethoxy-8-azabicyclo[3.2.1]octan-1-yl)benzoic acid] here?
Answer: 49.8 nM

Question: What about the IC50 [3] of the same compound?
Answer: 4.9 nM

Question: For `CCO[C@H]1C[C@H]2CCC(c3ccc(C(=O)O)cc3)(C1)N2Cc1c(C2CC2)cc(C)c2[nH]ccc12` (stereo in doubt) [Example 4, 4-((1S,3S,5R)-8-((5-Cyclopropyl-7-methyl-1H-indol-4-yl)methyl)-3-ethoxy-8-azabicyclo[3.2.1]octan-1-yl)benzoic acid], which IC50 [1] is on record?
Answer: 50.6 nM

Question: What about the IC50 [3] of the same compound?
Answer: 1.6 nM

Question: Which results are given for `CCO[C@H]1C[C@H]2CCC(c3ccc(C(=O)O[C@@H]4O[C@H](C(=O)O)[C@@H](O)[C@H](O)[C@H]4O)cc3)(C1)N2Cc1c(OC)cc(C)c2[nH]ccc12` (stereo in doubt) [Example 5, (2S,3S,4S,5R,6S)-6-((4-((1S,3S,5R)-3-Ethoxy-8-((5-methoxy-7-methyl-1H-indol-4-yl)methyl)-8-azabicyclo[3.2.1]octan-1-yl)benzoyl)oxy)-3,4,5-trihydroxytetrahydro-2H-pyran-2-carboxylic acid]?
Answer: IC50 [1]: 74.6 nM; IC50 [3]: 30 nM

Question: With `CCO[C@H]1CCN(Cc2c(OC)cc(C)c3[nH]ccc23)[C@H](c2ccc(C(=O)O)cc2)C1` [LNP023] as the compound, how does the “day from which statistical decreases in urine total protein/creatinine ratio began” value ([2]; 20 mg/kg orally twice daily) read?
Answer: 11 days

Question: What about the “decrease in the ratio of total protein/creatinine in rat urine compared to the model group” value ([2]; 20 mg/kg orally twice daily) of the same compound?
Answer: 56.4%

Question: And the “decrease in rat serum iC3b+C3d” value ([2]; 20 mg/kg orally twice daily)?
Answer: 62.2%

Question: And the “day from which statistical decreases in urine total protein/creatinine ratio began” value ([2]; 60 mg/kg orally twice daily)?
Answer: 11 days

Question: And the “decrease in the ratio of total protein/creatinine in rat urine compared to the model group” value ([2]; 60 mg/kg orally twice daily)?
Answer: 47.1%

Question: And the “decrease in rat serum iC3b+C3d” value ([2]; 60 mg/kg orally twice daily)?
Answer: 68.8%

Question: And the “dose dependence of the decrease in urine total protein/creatinine ratio” value ([2]; day 14, across dose groups)?
Answer: not significantly dose-dependent

Question: What about the “decrease in LDH” value ([4]; at 13 weeks, all the patients, LNP023 twice daily with eculizumab) of the same compound?
Answer: 34-81%

Question: And the “males with Hb>120 g/L” value ([4]; at 13 weeks)?
Answer: 71%

Question: And the tolerability ([4]; twice daily for at least 13 weeks with eculizumab)?
Answer: well tolerated

Question: For “OMS721: humanized monoclonal antibody targeting the MASP-2 protein developed by Omeros Inc.”, which proteinuria index [5] is on record?
Answer: significantly improved
